Assay results taken from paper PMC8568530, “Inhibition of Vascular Smooth Muscle and Cancer Cell Proliferation by New VEGFR Inhibitors and Their Immunomodulator Effect: Design, Synthesis, and Biological Evaluation” (Oxidative Medicine and Cellular Longevity, 2021).

Key:
HepG-2 = experiment: MTT antiproliferative assay, HepG-2; assay type: cell-based; conditions: Homo sapiens, HepG2, hepatocellular carcinoma HepG-2
Method: (§1) The in vitro antiproliferative activities of the newly synthesized compounds were evaluated against a panel of three human tumor cell lines, namely, breast cancer (MCF-7), hepatocellular carcinoma (HepG-2), and colorectal carcinoma (HCT-116) using the standard MTT method. The tested cell lines were selected depending on their VEGF overexpression. Sorafenib, the lead drug, was coassayed as a positive control.
(§2) The antiproliferative activity of the synthesized compounds was evaluated using MTT protocol as described (Supplementary data (available here)).

HCT-116 = experiment: MTT antiproliferative assay, HCT-116; assay type: cell-based; conditions: Homo sapiens, colorectal carcinoma HCT-116
Method: as §1, §2

caspase-3 = experiment: Active caspase-3 level in HepG-2 cells; assay type: cell-based, human; conditions: for Caspase 3 Conc.: HepG-2 cells treated with compound; for Caspase 3 Fold: HepG-2 cells, versus control
Excerpt: (1) Effects on the Levels of Active Caspase-3. A significant mechanism by which anticancer agents can affect cancer cells is apoptosis. Apoptosis is a process of automated cell death. The apoptosis mechanism is typically mediated by a group of proteases called caspases. Caspase-3 is activated in every mammalian cell type provoking the cell to die, considered one of the apoptosis marks.
(1) Effects on the Levels of Active Caspase-3. […] (Supplementary data).

[1] = test system: WI-38 cell line (normal human lung fibroblasts); experiment: MTT cytotoxicity against normal cells WI-38; assay type: cell-based; conditions: normal human lung fibroblasts WI-38
Method: The cytotoxicity values of the synthesized compounds against the WI-38 cell line (normal human lung fibroblasts) were also evaluated in vitro.
as §2

BAX = BAX level in HepG-2 cells; assay type: cell-based, human; conditions: for BAX Conc.: HepG-2 cells treated with compound; for BAX Fold: HepG-2 cells, versus control
Excerpt: (§3) (2) Effects on Bcl-2 Family Proteins. The Bcl-2 family proteins are vital regulators of apoptosis cell death. Members of this family include the proapoptotic factor Bax which promotes cell death and the prosurvival (antiapoptotic) Bcl-2 which suppresses cell death. […] Results are expressed in Table 3.
(§4) (2) Effects on Bcl-2 Family Proteins. […] (Supplementary data).

VEGFR-2 = VEGFR-2 (Homo sapiens, UniProt P35968); experiment: In vitro VEGFR-2 enzyme inhibition assay; assay type: biochemical; conditions: read-out: IC50 against VEGFR-2
VEGFR-2, sequence (P35968 20-1356): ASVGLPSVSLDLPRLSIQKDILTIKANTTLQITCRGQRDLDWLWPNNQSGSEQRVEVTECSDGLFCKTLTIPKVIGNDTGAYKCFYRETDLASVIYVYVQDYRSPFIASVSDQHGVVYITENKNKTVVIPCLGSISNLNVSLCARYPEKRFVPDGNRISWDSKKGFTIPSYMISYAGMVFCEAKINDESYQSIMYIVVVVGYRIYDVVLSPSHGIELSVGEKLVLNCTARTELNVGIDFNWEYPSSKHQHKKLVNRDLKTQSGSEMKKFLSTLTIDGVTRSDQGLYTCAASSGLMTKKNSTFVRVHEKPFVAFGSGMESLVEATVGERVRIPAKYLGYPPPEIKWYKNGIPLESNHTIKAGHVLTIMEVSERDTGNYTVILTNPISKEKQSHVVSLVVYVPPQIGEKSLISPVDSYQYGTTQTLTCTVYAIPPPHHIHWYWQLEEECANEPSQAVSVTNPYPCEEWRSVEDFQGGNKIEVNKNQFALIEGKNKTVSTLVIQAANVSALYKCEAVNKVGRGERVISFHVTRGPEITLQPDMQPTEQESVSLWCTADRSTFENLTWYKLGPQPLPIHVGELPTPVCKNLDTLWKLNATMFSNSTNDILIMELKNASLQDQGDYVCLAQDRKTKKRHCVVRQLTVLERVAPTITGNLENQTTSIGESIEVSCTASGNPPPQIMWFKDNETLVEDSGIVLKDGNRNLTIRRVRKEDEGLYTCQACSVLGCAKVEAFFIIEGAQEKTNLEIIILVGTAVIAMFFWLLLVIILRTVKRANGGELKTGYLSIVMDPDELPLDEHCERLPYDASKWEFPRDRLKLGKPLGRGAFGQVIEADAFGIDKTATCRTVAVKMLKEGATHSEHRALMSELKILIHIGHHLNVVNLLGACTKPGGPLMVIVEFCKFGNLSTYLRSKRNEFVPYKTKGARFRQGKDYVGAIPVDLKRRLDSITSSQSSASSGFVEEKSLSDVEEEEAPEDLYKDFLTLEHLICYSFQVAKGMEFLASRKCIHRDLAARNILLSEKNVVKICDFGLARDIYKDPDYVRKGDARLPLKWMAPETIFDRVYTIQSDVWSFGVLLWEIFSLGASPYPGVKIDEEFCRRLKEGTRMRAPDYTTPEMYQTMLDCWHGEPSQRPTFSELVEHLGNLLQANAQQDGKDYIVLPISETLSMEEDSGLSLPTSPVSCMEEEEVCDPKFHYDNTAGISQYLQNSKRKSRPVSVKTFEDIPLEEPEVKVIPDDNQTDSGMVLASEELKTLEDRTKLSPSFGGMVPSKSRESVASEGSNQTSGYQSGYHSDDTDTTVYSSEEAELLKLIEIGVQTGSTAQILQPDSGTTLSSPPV

TNF-α = TNF-α in HepG-2 supernatant (ELISA); assay type: cell-based, human
Excerpt: (1) Estimation of Human Tumor Necrosis Factor Alpha (TNF-α) in HepG-2 Supernatant. […] Celecoxib, a potent inhibitor of TNF-α-induced cytokine expressions, was used as a positive control. […] Among the tested compounds, compound 7a caused a remarkably significant reduction in TNF-α levels (87%) in comparison to celecoxib (86%).
The levels of TNF-α in cell culture supernatants were estimated by the ELISA technique according to the reported procedure.

MCF-7 = experiment: MTT antiproliferative assay, MCF-7; assay type: cell-based; conditions: Homo sapiens, MCF7, breast cancer MCF-7
Method: as §1, §2

Bcl-2 = Bcl-2 level in HepG-2 cells; assay type: cell-based, human; conditions: for Bcl-2 Conc.: HepG-2 cells treated with compound; for Bcl-2 Fold: HepG-2 cells, versus control
Excerpt: as §3, §4

Row | Compound | IC50 (HepG-2) [µM] | IC50 (HCT-116) [µM] | Caspase 3 Conc. (caspase-3) [pg/mL] | Caspase 3 Fold (caspase-3) [fold] | IC50 [1] [µM] | BAX Conc. (BAX) [pg/mL] | BAX Fold (BAX) [fold] | IC50 (VEGFR-2) [µM] | TNF-α % inhibition (TNF-α) [%] | IC50 (MCF-7) [µM] | Bcl-2 Conc. (Bcl-2) [pg/mL] | Bcl-2 Fold (Bcl-2) [fold]
1 | O=C(Nc1ccc(C(=O)NC2CCCCC2)cc1)c1cccnc1 [Compound 5, N-(4-(Cyclohexylcarbamoyl)phenyl)nicotinamide] | 3.29 | 1.6 | 345.5 | 6.72 | 61.4 | 232.7 | 10.78 | 2.46 | 85 | 4.66 | 1.35 | 0.25
2 | COc1ccc(NC(=O)c2ccc(NC(=O)c3cccnc3)cc2)cc1 [Compound 7b, N-(4-((4-Methoxyphenyl)carbamoyl)phenyl)nicotinamide] | 2.12 | 2.54 | 397.61 |  | 82.2 | 257.5 | 11.93 | 3.45 | 72 | 1.25 | 1.92 | 0.36
3 | O=C(Nc1ccc(F)cc1)c1ccc(NC(=O)c2cccnc2)cc1 [Compound 7l, N-(4-((4-Fluorophenyl)carbamoyl)phenyl)nicotinamide] | 2.64 | 2.75 | 340.42 | 6.62 | 68.2 | 226.9 | 10.51 | 3.84 | 74 | 3.5 | 2.11 | 0.39
4 | O=C(NNC(=O)C(F)(F)F)c1ccc(NC(=O)c2cccnc2)cc1 [Compound 10, N-(4-(2-(2,2,2-Trifluoroacetyl)hydrazine-1-carbonyl)phenyl)nicotinamide] | 3.16 | 5.49 | 334.57 | 6.51 | 78.4 | 231.6 | 10.73 | 7.68 | 40 | 3.55 | 2.72 | 0.51
5 | COc1ccc(/C=N/NC(=O)c2ccc(NC(=O)c3cccnc3)cc2)cc1 [Compound 11d, (E)-N-(4-(2-(4-Methoxybenzylidene)hydrazine-1-carbonyl)phenyl)-nicotinamide] | 2.23 | 1.94 | 391.23 |  | 50.3 | 237.9 | 11.02 | 2.74 | 81 | 4.15 | 1.72 | 0.32
6 | O=C(CSc1nnc(-c2cccnc2)o1)Nc1ccc(Cl)cc1 [Compound 18a, N-(4-Chlorophenyl)-2-((5-(pyridin-3-yl)-1,3,4-oxadiazol-2-yl)thio)acetamide] | 8.29 | 5.13 | 267.64 | 5.20 | 123 | 113.5 | 5.26 | 5.23 | 45 | 5.81 | 2.63 | 0.49
7 | O=C(CSc1nnc(-c2cccnc2)o1)Nc1ccccc1 [Compound 18b, N-Phenyl-2-((5-(pyridin-3-yl)-1,3,4-oxadiazol-2-yl)thio)acetamide] | 6.11 | 4.19 | 310.75 | 6.04 | 64.3 | 154.4 | 7.15 | 6.57 | 54 | 2.67 | 2.51 | 0.47
